One may read the IC50 as the concentration at which inhibition is half-maximal.

Several values for one entry are separate records, joined by “and”; a condition that tells them apart may be missing. Equal entries are not always repeated.

The values below come from paper PMC5055185, “Dual pharmacological inhibition of glutathione and thioredoxin systems synergizes to kill colorectal carcinoma stem cells” (Cancer Medicine, 2016).

Holding throughout (format): cell-based, human
For assay [1], the system named is TIG‐111 dermal fibroblasts. The experiment in a line: cell survival (trypan blue exclusion, 5 days), TIG-111. As to conditions: for IC50: TIG111, cellular survival, 5 days; for Ratio of survived cells (Drugs treated/Untreated), Average / Ratio of survived cells (Drugs treated/Untreated), single passage points #: TIG-111. The method, then: (§1) Modified procedures of CTOS culture 16 were described elsewhere 10. […] The culture medium was serum‐free advanced DMEM/F‐12 (GIBCO, Waltham, MA) supplemented with FGF‐2 (10 ng/mL, ReproCell, Yokohama, Japan), penicillin ([…], Wako, Osaka, Japan), streptomycin (0.1 mg/mL,Wako), gentamicin (50 μg/mL, Wako), and fungizone (0.25 μg/mL, GIBCO). DLD‐1 and HCT116 CRC cell lines were purchased from JCRB Cell Bank (Osaka, Japan) and RIKEN BioResource Center (Ibaraki, Japan), respectively. In order to estimate pharmacological side effects against normal tissues, human diploid fibroblasts were purchased (JCRB Cell Bank) as model cells. The origins of the fibroblasts were as follows: OUMS‐36 (embryo), TIG‐3 (fetal lung), TIG‐111 (dermal fibroblasts [DFs] from individual), TIG‐119 (DFs from individual), and TIG‐102 (DFs from individual). Adult DFs were purchased from Kurabo (Osaka, Japan). CRC cell lines and fibroblasts were maintained under supplier‐recommended culture conditions. Since the culture conditions are different between fibroblasts and CTOSs, we need to be cautious about the interpretation of data (i.e., lateral comparison between them). […] Colorectal CTOSs display augmented survival through maintaining epithelial structure with E‐cadherin 16. On the other hand, the establishment of conventional cell lines (adherent culture) are much less efficient because constant cell division and autonomous survival are required for the procedure. When we choose CTOSs instead of cancer cell lines, we lose the equivalent condition (adherent culture) as a trade‐off.
Each drug's half‐maximal inhibitory concentration (IC50) was calculated based on live cell number ratios (drug treated/untreated × 100%) obtained from serial dilution of drug concentration. The length of drug exposure was 5 days. Each number of live cells was counted automatically by trypan blue exclusion (LUNA automated cell counter, Logos Biosystems, Anyang, South Korea). Cancer spheroids were dispersed with serial treatments (20 min each) of TrypLE™ and Accumax™. Thus, IC50 was determined based on cellular survival, but not on proliferation. We chose the survival index instead of the speed of growth because CTOSs in vitro show very slow proliferation (quiescence), which is one of the hallmarks of CSCs 2. The IC50 values of fibroblasts were accordingly determined based on cellular survival index during quiescence (by contact inhibition). […] To quantify the synergism of two distinct drugs, Combination Index (CI) was calculated 21. A CI value of about 1 (0.90–1.10) was defined as nearly additive and CI values more than (>1.10) and less than (<0.90) were defined as antagonism and synergism, respectively. IC50 and CI were determined using CompuSyn software (ComboSyn, Paramus, NK).

In assay [2] the test system is CTOS76 colorectal cancer tissue‐originated spheroids. Put plainly: cell survival (trypan blue exclusion, 5 days), CTOS76. To be noted: for IC50: CTOS76, cellular survival, 5 days.
Source text: All experimental procedures were approved by the animal facility at Dokkyo Medical University (ID: 951) and were described elsewhere 10. The existence of CSCs has been experimentally proven through serial xenotransplantation and tumorigenesis 2, 14. […] These subcutaneous tumors were again subjected to enzymatic dissociation and some of the tumor cells were subcutaneously transplanted into other mice. […] Seven cases (CTOS:40, 42, 68, 71, 76, 86, 88) were used for in vitro experiments.
as §1
Each drug's half‐maximal inhibitory concentration (IC50) was calculated based on live cell number ratios (drug treated/untreated × 100%) obtained from serial dilution of drug concentration. The length of drug exposure was 5 days. Each number of live cells was counted automatically by trypan blue exclusion (LUNA automated cell counter, Logos Biosystems, Anyang, South Korea). Cancer spheroids were dispersed with serial treatments (20 min each) of TrypLE™ and Accumax™. Thus, IC50 was determined based on cellular survival, but not on proliferation.

Assay [3] concerns phosphorylated NRF2 in colorectal CTOSs. The experiment in a line: NRF2 phosphorylation by western blotting, colorectal CTOSs. To be noted: 24 hours, Auranofin 2µM, Piperlongumine 5µM, CB83 12.5 µM. The method, then:
From colorectal CTOS, whole‐cell proteins were dissolved with solubilizer (7 mol/L urea, 2 mol/L thiourea, 2% Triton X‐100, Wako) and the entangled genomic DNA was sheared by sonication for 30 min. Procedures for immunoblotting have been described elsewhere 6, 10. Primary antibodies used in this study are as follows: phosphorylated NRF2 from Abcam (#76026) and Histone H3 from Cell Signaling Technologies (#4499, Danvers, MA). Phosphorylation of NRF2 is well correlated with nuclear accumulation in HCCs 6. Representative data are shown in the figures; all experiments were reproduced at least twice with different passage points.
Colorectal CTOSs were incubated with each inhibitor for 24 hours. Whole cell proteins were extracted and each well was loaded with same amount of proteins (40 µg for NRF2 and 10 µg for H3). Phosphorylation of NRF2 was measured by western blotting. Blotting for histone H3 serves as loading control.

With `CC[PH](CC)(CC)[Au][S][C@@H]1O[C@H](COC(C)=O)[C@@H](OC(C)=O)[C@H](OC(C)=O)[C@H]1OC(C)=O` [Aura, Auranofin], the IC50 in assay [1] came out at 1.75 µM; in assay [2] it was 2.83 µM. The “Ratio of survived cells (Drugs treated/Untreated), Average” value in assay [1] (Aura 1 microM) is 94.25%; in assay [1] (Aura 2 microM) it was 41.75%; in assay [1] (Aura 4 microM) it was 0%; in assay [2] (CTOS#76, Aura 1 microM), 68.4%; in assay [2] (CTOS#76, Aura 2 microM), 56.4%; in assay [2] (CTOS#76, Aura 4 microM) it was 39.5%. The “Ratio of survived cells (Drugs treated/Untreated), single passage points #” value in assay [1] (Aura 4 microM) was 0%; in assay [2] (CTOS#76, Aura 4 microM), 36% and 56% and 30%. Besides, the NRF2 phosphorylation entry in assay [3] is “efficiently phosphorylated”.

As for `COc1cc(/C=C/C(=O)N2CCC=CC2=O)cc(OC)c1OC` [Pipe, Piperlongumine], the 50% inhibitory concentration (IC50) in assay [1] was determined as 8.04 µM; in assay [2] it was 7.15 µM. Further, the “Ratio of survived cells (Drugs treated/Untreated), Average” value is reported as 110% in assay [1] (Pipe 2.5 microM); 95% in assay [1] (Pipe 5 microM); 19.75% in assay [1] (Pipe 10 microM); 81.75% in assay [2] (CTOS#76, Pipe 2.5 microM); 73% in assay [2] (CTOS#76, Pipe 5 microM); 32.3333% in assay [2] (CTOS#76, Pipe 10 microM). The “Ratio of survived cells (Drugs treated/Untreated), single passage points #” value in assay [1] (Pipe 2.5 microM) is 85% and 103% and 123% and 129%; in assay [1] (Pipe 5 microM), 69% and 82% and 125% and 104%. For the same compound, the NRF2 phosphorylation result in assay [3] is “efficiently phosphorylated”.
